Experimental data from patent US11311539B2, “Compositions and methods for treatment of fragile X syndrome” (Children's Hospital Medical Center, priority 2015, dated 2022).
Entries after “also recorded” stand apart in the source; their conditions may differ.

Columns and labels:
[1] = system: Fmr1 KO mice; assay: Audiogenic seizure susceptibility (120 dB siren); format: in vivo; details: oral gavage, acute, 30 min prior to testing, juvenile mice, VEH approximately 60%
Method: (§1) Throughout experiments in Fmr1 KO mice, we treated animals with 1 mg/kg AZD7325, 3 mg/kg AZD7325 or vehicle (VEH) by oral gavage to mimic the human exposure route. Juvenile mice were treated acutely and adult mice were treated chronically prior to and throughout behavior analysis.
(§2) Audiogenic seizure susceptibility in Fmr1 KO mice, which is thought to be the result of increased neuronal activity in response to sensory stimuli, peaks around the third week of life and manifests as wild running which is typically followed by tonic-clonic seizure. […] In adulthood, Fmr1 KO mice have abnormal motor responses to sensory stimuli compared to WT mice in an acoustic startle paradigm. […] This type of deficit in the VEH-treated Fmr1 KO mice is reminiscent of the exaggerated anxiety responses people with FXS commonly display.

[2] = system: Fmr1 KO mice; assay: Acoustic startle paradigm (whole body flinch, Vmax); format: in vivo; details: adult Fmr1 KO mice
Method: In adulthood, Fmr1 KO mice have abnormal motor responses to sensory stimuli compared to WT mice in an acoustic startle paradigm.
as §1, §2

[3] = system: Fmr1 KO mice; assay: Conditioned fear response to mild foot shock (cued portion); format: in vivo; details: both dose levels (1 and 3 mg/kg), oral gavage, KO mice vs WT
Method: as §1, §2

[4] = system: Fmr1 KO mice; assay: Novel object recognition paradigm; format: in vivo; details: low dose (1 mg/kg), oral gavage, KO mice vs KO+VEH
Method: as §1, §2
Based upon preclinical data in FXS implicating insufficient GABA(A) activity in the pathophysiology of the disorder combined with preclinical and human evidence (unpublished data) supporting the tolerability and effectiveness of improving aberrant behavior, 4-amino-8-(2-fluoro-6-methoxy-phenyl)-N-propyl-cinnoline-3-carboxamide is an ideal molecule to develop as a clinical treatment in humans with FXS.

[5] = system: FXS KO mice; details: preclinical literature; cited from earlier work
[6] = system: FXS KO mice; details: preclinical literature; cited from earlier work; remark: listed apart in the source
[7] = system: FXS KO mice; details: literature; cited from earlier work
[8] = system: FXS KO mice; details: literature; cited from earlier work; remark: listed apart in the source
[9] = system: FXS KO mice; details: literature; cited from earlier work; remark: listed apart in the source

CCCNC(=O)c1nnc2c(-c3c(F)cccc3OC)cccc2c1N [AZD7325, 4-amino-8-(2-fluoro-6-methoxy-phenyl)-N-propyl-cinnoline-3-carboxamide]
Fmr1 KO mice displaying wild running followed by seizure ([1]; high dose (3 mg/kg)): 0%
Fmr1 KO mice displaying wild running followed by seizure ([1]; low dose (1 mg/kg)): 11%
Whole body flinching, low-level acoustic startle ([2]; 82 db white noise burst, 10 trial blocks, chronic low dose): significantly reduced whole body flinching
Whole body flinch response, high level acoustic stimulus ([2]; 120 dB stimulus, chronic treatment): improves this response to WT levels
Conditioned fear response, cued portion of the test [3]: normalizing this behavior in KO mice
Object memory in novel object recognition (discrimination index) [4]: attenuates deficits in object memory
Object memory in novel object recognition (discrimination index) ([4]; listed as 4-amino-8-(2-fluoro-6-methoxy-phenyl)-N-propyl-cinnoline-3-carboxamide): attenuates deficits in object memory; also recorded: greater interest in the novel object

CC(=O)[C@H]1CC[C@H]2[C@@H]3CC[C@H]4C[C@H](O)CC[C@]4(C)[C@H]3C(=O)C[C@]12C [alphaxalone]
Anxiety [5]: reductions in anxiety
Audiogenic seizures [6]: rescue of audiogenic seizures

Oc1noc2c1CCNC2 [gaboxadol]
Neuron excitability deficits in the amygdala [7]: restored neuron excitability deficits in the amygdala
Hyperactivity [8]: reduced hyperactivity
Prepulse inhibition (PPI) alterations [9]: reduced prepulse inhibition (PPI) alterations
